Laboratory results as given in PubChem BioAssay (NCI).
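These data come from cells grown in 96-well plates and exposed to compound for 48 hours at five concentrations. TGI denotes the concentration required for complete inhibition of growth.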

Assays:
Test in all cases: NCI-60 cell line screen, 48 h
EKVX NSCLC = test system: EKVX NSCLC
SF-295 CNS = test system: SF-295 CNS
SK-MEL-28 melanoma = test system: SK-MEL-28 melanoma
SK-MEL-5 melanoma = test system: SK-MEL-5 melanoma
COLO 205 colon = test system: COLO 205 colon
HCC-2998 colon = test system: HCC-2998 colon
SNB-75 CNS = test system: SNB-75 CNS
HOP-92 NSCLC = test system: HOP-92 NSCLC
HCT-15 colon = test system: HCT-15 colon
SF-268 CNS = test system: SF-268 CNS
DU-145 prostate = test system: DU-145 prostate
M14 melanoma = test system: M14 melanoma
MDA-MB-435 = test system: MDA-MB-435
CCRF-CEM leukemia = test system: CCRF-CEM leukemia
SK-MEL-2 melanoma = test system: SK-MEL-2 melanoma

CC(C)(C)OC(=O)N1CCC23CCCC2C(=O)CC=C13 (stereo not given)
TGI (EKVX NSCLC): > 100 µM | TGI (SF-295 CNS): > 100 µM | TGI (SK-MEL-28 melanoma): > 100 µM | TGI (SK-MEL-5 melanoma): > 100 µM | TGI (COLO 205 colon): > 100 µM | TGI (HCC-2998 colon): > 100 µM | TGI (SNB-75 CNS): > 100 µM | TGI (HOP-92 NSCLC): > 100 µM | TGI (HCT-15 colon): > 100 µM | TGI (SF-268 CNS): > 100 µM | TGI (DU-145 prostate): > 100 µM | TGI (M14 melanoma): > 100 µM | TGI (MDA-MB-435): > 100 µM | TGI (CCRF-CEM leukemia): > 100 µM | TGI (SK-MEL-2 melanoma): > 100 µM

COC(=O)CCCCC/C(=C\C(=O)C(Cl)(Cl)Cl)OC
TGI (EKVX NSCLC): 56.8 µM | TGI (SF-295 CNS): > 100 µM | TGI (SK-MEL-28 melanoma): > 100 µM | TGI (SK-MEL-5 melanoma): > 100 µM | TGI (COLO 205 colon): 57.7 µM | TGI (HCC-2998 colon): 35.6 µM | TGI (SNB-75 CNS): 72.7 µM | TGI (HOP-92 NSCLC): 57.1 µM | TGI (HCT-15 colon): 68.2 µM | TGI (SF-268 CNS): 86.3 µM | TGI (DU-145 prostate): 63.1 µM | TGI (M14 melanoma): > 100 µM | TGI (MDA-MB-435): 64.7 µM | TGI (CCRF-CEM leukemia): > 100 µM | TGI (SK-MEL-2 melanoma): 50 µM

Cn1c(=O)n(CC(Br)CBr)c(=O)n(CC(Br)CBr)c1=O (stereo not given)
TGI (EKVX NSCLC): 88.7 µM | TGI (SF-295 CNS): > 100 µM | TGI (SK-MEL-28 melanoma): > 100 µM | TGI (SK-MEL-5 melanoma): 32.9 µM | TGI (COLO 205 colon): 43.4 µM | TGI (HCC-2998 colon): 81.1 µM | TGI (SNB-75 CNS): > 100 µM | TGI (HOP-92 NSCLC): > 100 µM | TGI (HCT-15 colon): > 100 µM | TGI (SF-268 CNS): > 100 µM | TGI (DU-145 prostate): > 100 µM | TGI (M14 melanoma): 73.6 µM | TGI (MDA-MB-435): > 100 µM | TGI (CCRF-CEM leukemia): 66.9 µM | TGI (SK-MEL-2 melanoma): > 100 µM

Nc1c(C(=O)c2ccccc2)[nH]c(NCc2ccccc2)c1C(=S)Nc1ccccc1
TGI (EKVX NSCLC): > 100 µM | TGI (SF-295 CNS): > 100 µM | TGI (SK-MEL-28 melanoma): > 100 µM | TGI (SK-MEL-5 melanoma): > 100 µM | TGI (COLO 205 colon): > 100 µM | TGI (HCC-2998 colon): > 100 µM | TGI (SNB-75 CNS): > 100 µM | TGI (HOP-92 NSCLC): > 100 µM | TGI (HCT-15 colon): > 100 µM | TGI (SF-268 CNS): > 100 µM | TGI (DU-145 prostate): > 100 µM | TGI (M14 melanoma): > 100 µM | TGI (MDA-MB-435): > 100 µM | TGI (CCRF-CEM leukemia): > 100 µM | TGI (SK-MEL-2 melanoma): > 100 µM

CC/C(Cl)=N\OC(=O)Nc1ccc(C#N)cc1
TGI (EKVX NSCLC): 26.3 µM | TGI (SF-295 CNS): 33 µM | TGI (SK-MEL-28 melanoma): 33.8 µM | TGI (SK-MEL-5 melanoma): 25.9 µM | TGI (COLO 205 colon): 3.3 µM | TGI (HCC-2998 colon): 30.1 µM | TGI (SNB-75 CNS): 28.2 µM | TGI (HOP-92 NSCLC): 8.54 µM | TGI (HCT-15 colon): 21.7 µM | TGI (SF-268 CNS): 33 µM | TGI (DU-145 prostate): 29.6 µM | TGI (M14 melanoma): 24.8 µM | TGI (MDA-MB-435): 29.4 µM | TGI (CCRF-CEM leukemia): 4.1 µM | TGI (SK-MEL-2 melanoma): 30 µM

CC(Cc1ccc(O)c(O)c1)C(C)Cc1ccc(O)c(O)c1 (stereo not given)
TGI (EKVX NSCLC): 58.8 µM | TGI (SF-295 CNS): 43 µM | TGI (SK-MEL-28 melanoma): 31.1 µM | TGI (SK-MEL-5 melanoma): 32.9 µM | TGI (COLO 205 colon): 35.9 µM | TGI (HCC-2998 colon): 38.9 µM | TGI (SNB-75 CNS): 61.7 µM | TGI (HOP-92 NSCLC): 12.2 µM | TGI (HCT-15 colon): > 60.8 µM | TGI (SF-268 CNS): 41.6 µM | TGI (DU-145 prostate): 46.4 µM | TGI (M14 melanoma): 34 µM | TGI (MDA-MB-435): 28.3 µM | TGI (CCRF-CEM leukemia): 19.3 µM | TGI (SK-MEL-2 melanoma): 42.9 µM

Nc1ncc(Cc2nc3ccccc3s2)s1
TGI (EKVX NSCLC): > 100 µM | TGI (SF-295 CNS): > 100 µM | TGI (SK-MEL-28 melanoma): > 100 µM | TGI (SK-MEL-5 melanoma): > 100 µM | TGI (COLO 205 colon): > 100 µM | TGI (HCC-2998 colon): > 100 µM | TGI (SNB-75 CNS): > 100 µM | TGI (HOP-92 NSCLC): > 100 µM | TGI (HCT-15 colon): > 100 µM | TGI (SF-268 CNS): > 100 µM | TGI (DU-145 prostate): > 100 µM | TGI (M14 melanoma): > 100 µM | TGI (MDA-MB-435): > 100 µM | TGI (CCRF-CEM leukemia): > 100 µM | TGI (SK-MEL-2 melanoma): > 100 µM

C[C@@H]1CCC2[C@@H](C)C(=O)O[C@@H]3C4C[C@@H]1[C@@]23OO[C@@]4(C)O (stereo not given in full)
TGI (EKVX NSCLC): > 100 µM | TGI (SF-295 CNS): > 100 µM | TGI (SK-MEL-28 melanoma): > 100 µM | TGI (SK-MEL-5 melanoma): > 100 µM | TGI (COLO 205 colon): > 100 µM | TGI (HCC-2998 colon): > 100 µM | TGI (SNB-75 CNS): > 100 µM | TGI (HOP-92 NSCLC): > 100 µM | TGI (HCT-15 colon): > 100 µM | TGI (SF-268 CNS): > 100 µM | TGI (DU-145 prostate): > 100 µM | TGI (M14 melanoma): > 100 µM | TGI (MDA-MB-435): > 100 µM | TGI (CCRF-CEM leukemia): > 100 µM | TGI (SK-MEL-2 melanoma): > 100 µM
